“And” between values parts separate entries of the source, which are not always exact repeats. Equal entries are not always repeated. Inconclusive results and toxic doses are left out. Cut-off read from the data, not from the text of the source: active = T/C of 150% or more; inactive = T/C below 125%.
Test system: L1210 leukemia ip in BDF1 mice, survival T/C
Experiment: NCI In Vivo Anticancer Drug Screen. Data for tumor model L1210 Leukemia (intraperitoneal) in B6D2F1 (BDF1) mice
Conditions: endpoint: mean survival time, higher = longer survival
Summary of the method: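 Value reflects the ratio of survival in compound-treated mice to survival in vehicle-treated controls, with both groups carrying the same transplanted tumor.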

[1] = dose: 100.0 mg/kg/injection, schedule: Q01DX001 (ip), vehicle: saline
[2] = dose: 100.0 mg/kg/injection, schedule: Q01DX009 (ip), vehicle: saline
[3] = dose: 200.0 mg/kg/injection, schedule: Q01DX001 (ip), vehicle: saline
[4] = dose: 400.0 mg/kg/injection, schedule: Q01DX001 (ip), vehicle: saline
[5] = dose: 100.0 mg/kg/injection, schedule: Q01DX009 (ip), vehicle: Klucel (hydroxypropylcellulose) (HPC)
[6] = dose: 100.0 mg/kg/injection, schedule: Q04DX003 (ip), vehicle: Klucel (hydroxypropylcellulose) (HPC)
[7] = dose: 200.0 mg/kg/injection, schedule: Q01DX009 (ip), vehicle: Klucel (hydroxypropylcellulose) (HPC)
[8] = dose: 200.0 mg/kg/injection, schedule: Q04DX003 (ip), vehicle: Klucel (hydroxypropylcellulose) (HPC)
[9] = dose: 400.0 mg/kg/injection, schedule: Q01DX009 (ip), vehicle: Klucel (hydroxypropylcellulose) (HPC)
[10] = dose: 400.0 mg/kg/injection, schedule: Q04DX003 (ip), vehicle: Klucel (hydroxypropylcellulose) (HPC)
[11] = dose: 200.0 mg/kg/injection, schedule: Q01DX009 (ip), vehicle: saline
[12] = dose: 400.0 mg/kg/injection, schedule: Q01DX009 (ip), vehicle: saline
[13] = dose: 100.0 mg/kg/injection, schedule: Q04DX003 (ip), vehicle: saline
[14] = dose: 200.0 mg/kg/injection, schedule: Q04DX003 (ip), vehicle: saline
[15] = dose: 400.0 mg/kg/injection, schedule: Q04DX003 (ip), vehicle: saline

Measured: T/C

CN(C)[C@@H]1C(=O)C(C(=O)NCNC(CO)(CO)CO)=C(O)[C@@]2(O)C(=O)C3=C(O)c4c(O)cccc4[C@@](C)(O)[C@H]3C[C@@H]12
inactive: dose: 1.0 mg/kg/injection, schedule: Q01DX Z (ip), vehicle: saline 100 % of control | dose: 4.0 mg/kg/injection, schedule: Q01DX Z (ip), vehicle: saline 100 % of control | dose: 14.0 mg/kg/injection, schedule: Q01DX Z (ip), vehicle: saline 108 % of control | dose: 15.0 mg/kg/injection, schedule: Q01DX Z (ip), vehicle: saline 102 % of control | dose: 25.0 mg/kg/injection, schedule: Q01DX009 (ip), vehicle: saline 104 % of control | dose: 28.0 mg/kg/injection, schedule: Q01DX Z (ip), vehicle: saline 94 % of control | dose: 50.0 mg/kg/injection, schedule: Q01DX009 (ip), vehicle: saline 97 % of control and 101 % of control | dose: 60.0 mg/kg/injection, schedule: Q01DX Z (ip), vehicle: saline 100 % of control | [1] 93 % of control and 95 % of control | [2] 98 % of control and 97 % of control | dose: 100.0 mg/kg/injection, schedule: Q04DX003 (ip), vehicle: acetone 92 % of control | dose: 112.0 mg/kg/injection, schedule: Q01DX Z (ip), vehicle: saline 93 % of control | dose: 120.0 mg/kg/injection, schedule: Q01DX Z (ip), vehicle: saline 113 % of control | [3] 108 % of control and 106 % of control | dose: 200.0 mg/kg/injection, schedule: Q04DX003 (ip), vehicle: acetone 100 % of control and 94 % of control | dose: 224.0 mg/kg/injection, schedule: Q01DX Z (ip), vehicle: saline 115 % of control | dose: 240.0 mg/kg/injection, schedule: Q01DX Z (ip), vehicle: saline 111 % of control | dose: 266.0 mg/kg/injection, schedule: Q01DX009 (ip), vehicle: saline 96 % of control | [4] 104 % of control and 92 % of control | dose: 400.0 mg/kg/injection, schedule: Q04DX003 (ip), vehicle: acetone 91 % of control and 90 % of control

C/C(C(=O)O)=C(/Br)c1ccc([N+](=O)[O-])cc1
inactive: [5] 94 % of control | [6] 94 % of control | [7] 95 % of control | [8] 100 % of control | [9] 92 % of control | [10] 100 % of control

Fc1ccc(-n2ncc3c2-c2ccccc2CCC3)cc1
inactive: [1] 108 % of control | [3] 104 % of control | [4] 108 % of control

CN=C(c1ccc(NC(=O)c2ccc(C(=O)Nc3ccc(C(=NC)N4CCOCC4)cc3)cc2)cc1)N1CCOCC1
inactive: dose: 0.9 mg/kg/injection, schedule: Q01DX Z (ip), vehicle: carboxymethylcellulose (CMC) 86 % of control | dose: 1.87 mg/kg/injection, schedule: Q01DX Z (ip), vehicle: carboxymethylcellulose (CMC) 91 % of control | dose: 3.75 mg/kg/injection, schedule: Q01DX Z (ip), vehicle: carboxymethylcellulose (CMC) 93 % of control | dose: 7.5 mg/kg/injection, schedule: Q01DX Z (ip), vehicle: carboxymethylcellulose (CMC) 91 % of control | dose: 15.0 mg/kg/injection, schedule: Q01DX Z (ip), vehicle: carboxymethylcellulose (CMC) 101 % of control

O=C(Oc1ccc(Br)cc1)c1cc([N+](=O)[O-])ccc1O
inactive: [1] 98 % of control | [3] 104 % of control | [4] 103 % of control

CC(NC(=O)NCCCl)C(O)c1ccccc1 (configuration not stated)
inactive: dose: 20.0 mg/kg/injection, schedule: Q04DX003 (ip), vehicle: Klucel (hydroxypropylcellulose) (HPC) 103 % of control | dose: 40.0 mg/kg/injection, schedule: Q04DX003 (ip), vehicle: Klucel (hydroxypropylcellulose) (HPC) 96 % of control | dose: 80.0 mg/kg/injection, schedule: Q04DX003 (ip), vehicle: Klucel (hydroxypropylcellulose) (HPC) 102 % of control | [6] 100 % of control

CCCCCCCCC(=O)CC
inactive: [2] 104 % of control | [11] 98 % of control | [12] 94 % of control

CC(C)(C)C1Sc2nc3ccccc3n2C1=O (configuration not stated)
inactive: dose: 12.5 mg/kg/injection, schedule: Q01DX009 (ip), vehicle: Klucel (hydroxypropylcellulose) (HPC) 101 % of control | dose: 12.5 mg/kg/injection, schedule: Q04DX003 (ip), vehicle: Klucel (hydroxypropylcellulose) (HPC) 98 % of control | dose: 25.0 mg/kg/injection, schedule: Q01DX009 (ip), vehicle: Klucel (hydroxypropylcellulose) (HPC) 97 % of control | dose: 25.0 mg/kg/injection, schedule: Q04DX003 (ip), vehicle: Klucel (hydroxypropylcellulose) (HPC) 92 % of control | dose: 50.0 mg/kg/injection, schedule: Q01DX009 (ip), vehicle: Klucel (hydroxypropylcellulose) (HPC) 96 % of control | dose: 50.0 mg/kg/injection, schedule: Q04DX003 (ip), vehicle: Klucel (hydroxypropylcellulose) (HPC) 92 % of control

CCN(CC)C1CCC(NC(C)=O)CC1 (configuration not stated)
inactive: [2] 108 % of control | [13] 105 % of control and 97 % of control | [11] 107 % of control | [14] 96 % of control and 99 % of control | [12] 86 % of control | [15] 101 % of control

O=c1[nH]c2nc3ccccc3nc2c(=O)n1OS(=O)(=O)c1ccccc1
inactive: [5] 96 % of control | [7] 100 % of control | [9] 98 % of control

O=S(=O)(O)CNc1cc(Cl)cc(Cl)c1
inactive: [6] 90 % of control | [7] 93 % of control | [8] 88 % of control | [9] 91 % of control | [10] 92 % of control

COc1ccc(-n2cccc2)cc1
inactive: dose: 100.0 mg/kg/injection, schedule: Q01DX001 (ip), vehicle: steriod suspending solution 95 % of control | dose: 100.0 mg/kg/injection, schedule: Q04DX002 (ip), vehicle: Klucel (hydroxypropylcellulose) (HPC) 90 % of control | dose: 200.0 mg/kg/injection, schedule: Q01DX001 (ip), vehicle: steriod suspending solution 100 % of control | dose: 200.0 mg/kg/injection, schedule: Q04DX002 (ip), vehicle: Klucel (hydroxypropylcellulose) (HPC) 90 % of control | dose: 400.0 mg/kg/injection, schedule: Q01DX001 (ip), vehicle: steriod suspending solution 106 % of control | dose: 400.0 mg/kg/injection, schedule: Q04DX002 (ip), vehicle: Klucel (hydroxypropylcellulose) (HPC) 94 % of control

CC(C)OC1=CC2C(=CCC3C2(C)C(=O)CC2(C)C(C(C)(O)C(=O)/C=C/C(C)(C)O)C(O)CC32C)C(C)(C)C1=O (configuration not stated)
inactive: dose: 37.5 mg/kg/injection, schedule: Q04DX002 (ip), vehicle: saline with Tween-80 101 % of control | dose: 75.0 mg/kg/injection, schedule: Q04DX002 (ip), vehicle: saline with Tween-80 93 % of control | dose: 150.0 mg/kg/injection, schedule: Q04DX002 (ip), vehicle: saline with Tween-80 108 % of control

CCCCCC#CCO
inactive: dose: 100.0 mg/kg/injection, schedule: Q04DX003 (ip), vehicle: saline with Tween-80 108 % of control | dose: 200.0 mg/kg/injection, schedule: Q04DX003 (ip), vehicle: saline with Tween-80 101 % of control

NN1CCCCCC1
inactive: [13] 102 % of control | [14] 97 % of control | [15] 94 % of control

CCCCCCCCCCC(C1CCCC2CCCCC21)C1CCCC2CCCCC21 (configuration not stated)
inactive: dose: 100.0 mg/kg/injection, schedule: Q01DX001 (ip), vehicle: carboxymethylcellulose (CMC) 100 % of control | dose: 200.0 mg/kg/injection, schedule: Q01DX001 (ip), vehicle: carboxymethylcellulose (CMC) 102 % of control | dose: 400.0 mg/kg/injection, schedule: Q01DX001 (ip), vehicle: carboxymethylcellulose (CMC) 94 % of control

C=CCSC1=NC(=O)C(CCCC)C(=O)N1C (configuration not stated)
inactive: dose: 75.0 mg/kg/injection, schedule: Q01DX001 (ip), vehicle: saline 88 % of control
